Drawing on US9290487B2, “Pharmaceutical composition for treating diabetes” (Ajinomoto Co., Inc., priority 2011, dated 2016), this text covers EC50 for 26 compounds.

The first assay deals with human GYS1 (glycogen synthase) (Homo sapiens (Human), UniProt P13807). In words: Measurement of glycogen synthase activity (coupled pyruvate kinase/lactate dehydrogenase assay, absorbance at 340 nm). The assay is classed as biochemical. As to conditions: concentration inducing relative activity of 50% (100% = Ex. 1 of WO/2011/058154 at 10 μM); incubation at 30° C. for 25 minutes (Examples 1 to 10). On the procedure: A human GYS1 expression plasmid (pCDNA3.1(+)-hGYS1) was constructed by the following method. Using a human skeletal muscle cDNA of Human MTC Panel I (Takara Bio Inc., 636742) as a template, a human GYS1 gene was amplified by a PCR method using cloning primers (Forward Primer: ATGCCTTTAAACCGCAC (SEQ ID NO: 1), Reverse Primer: TTAGTTACGCTCCTCGC (SEQ ID NO: 2)). Using the amplified human GYS1 sequence as a template, a restriction enzyme sequence was added by a PCR method using sub-cloning primers (Forward Primer: […] (SEQ ID NO: 3), Reverse Primer: […] (SEQ ID NO: 4)). Then, the human GYS1 gene was introduced between a Xho I site and a Xba I site of pCDNA3.1(+) (Invitrogen Corporation, V790-20).
Chain of human GYS1 (glycogen synthase) (P13807 whole entry): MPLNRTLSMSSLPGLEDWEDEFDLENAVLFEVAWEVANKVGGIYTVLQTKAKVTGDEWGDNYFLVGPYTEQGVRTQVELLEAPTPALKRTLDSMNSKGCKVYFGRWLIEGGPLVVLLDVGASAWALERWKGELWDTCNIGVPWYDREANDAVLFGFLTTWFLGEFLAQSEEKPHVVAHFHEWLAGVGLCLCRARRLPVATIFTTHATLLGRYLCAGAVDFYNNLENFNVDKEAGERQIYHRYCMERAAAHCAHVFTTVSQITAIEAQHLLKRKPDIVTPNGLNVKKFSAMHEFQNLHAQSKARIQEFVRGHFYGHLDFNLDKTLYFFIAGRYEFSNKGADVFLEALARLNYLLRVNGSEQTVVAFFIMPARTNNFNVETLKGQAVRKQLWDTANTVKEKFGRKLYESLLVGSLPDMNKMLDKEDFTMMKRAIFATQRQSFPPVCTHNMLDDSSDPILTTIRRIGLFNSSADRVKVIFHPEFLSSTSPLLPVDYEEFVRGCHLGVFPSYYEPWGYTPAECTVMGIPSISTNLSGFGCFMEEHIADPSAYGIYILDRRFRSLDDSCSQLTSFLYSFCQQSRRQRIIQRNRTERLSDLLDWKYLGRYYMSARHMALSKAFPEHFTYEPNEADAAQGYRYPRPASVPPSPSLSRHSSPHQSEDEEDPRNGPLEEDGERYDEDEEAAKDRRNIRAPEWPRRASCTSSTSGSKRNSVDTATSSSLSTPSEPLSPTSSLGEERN
Glycogen synthase was prepared by the following method according to the published article (THE JOURNAL OF BIOLOGICAL CHEMISTRY Vol. 269, No. 41, 25534-25542, 1994). Human kidney-derived HEK293T cells were seeded in a dish (Thermo Fisher Scientific Inc., 168381) using a 10% FBS-containing DMEM (Nacalai Tesque, Inc., 0845874) medium, and cultured overnight. Then, using Lipofectamine LTX (Invitrogen Corporation, 15338-100), the human GYS1 expression vector was transfected according to the attached manual. After culturing under conditions of 37° C. and 5% CO2 for 2 days, the resultant was dissolved in a lysis buffer (50 mM Tris-HCl (pH 8.0), 10 mM EDTA, 2 mM EGTA, 100 mM NaF, 1 mM PMSF, 1 mM DTT, 1× Complete (Roche Diagnostics K. K., 1873580)), homogenized, and then centrifuged at 16000×g at 4° C. for 15 minutes. To the precipitated fraction, a lysis buffer was added. Re-dissolved fractions were used as glycogen synthase for evaluation.
The glycogen synthase activity was measured by the following method. To a polystyrene 96-well plate, a solution containing 30 mM glycylglycine (pH 7.3), 40 mM KCl, 20 mM MgCl2, 9.2% DMSO containing one of the test compounds at various concentrations, and 10 mM glucose-6-phosphate (Sigma-Aldrich Corporation, G7879) was added by 12 μL/well.
Next, a substrate solution containing 30 mM glycylglycine (pH 7.3), 4.3 mg/mL of glycogen (Sigma-Aldrich Corporation, G8876), 21.6 mM UDP-glucose (Sigma-Aldrich Corporation, U4625), 21.6 mM phosphoenolpyruvic acid (Sigma-Aldrich Corporation, P0564), and 4.05 mM NADH (Sigma-Aldrich Corporation, N8129) was added by 18 μL/well.
Further, an enzyme solution containing 50 mM Tris-HCl (pH 8.0), 27 mM DTT (Nacalai Tesque, Inc., 14128-04), 0.2 mg/mL of bovine serum albumin, 0.17 mg/mL of the glycogen synthase, 1.5 μL of a pyruvate kinase/lactate dehydrogenase solution (Sigma-Aldrich Corporation, P0294) was added by 18 μL/well to prepare a reaction solution. After the reaction solution was incubated (at 30° C. for 25 minutes for Examples 1 to 10, at 37° C. for 20 minutes for Examples 11 to 75), the absorbance at 340 nm was measured using Benchmark Plus (Bio-Rad Laboratories, Inc.).
The activities of the test compounds were calculated by the following method. The change in the absorbance (ΔA340) was calculated by subtracting the absorbance at 340 nm of the reaction solution containing the compound and DMSO from the absorbance at 340 nm of a reaction solution not containing the compound but containing only DMSO. The ΔA340 of the reaction solution containing the compound of Example 1 in WO/2011/058154 at the final concentration of 10 μM was taken as 100% to calculate the relative activity (%) of the test compounds at various concentrations. EC50 representing the concentration of the compound which induces an increase in the relative activity to 50% was calculated using XLfit (idbs).
For the compound `O=C(O)[C@@H]1CCCN1C(=O)c1cccc(COc2ccc(-c3ccc4occc4c3)cc2)c1` [compound of Ex. 6], the midpoint of the response, the EC50, lay at 330 nM.
Take `O=C(O)[C@@H]1CCCN1C(=O)c1cccc(COc2ccc(-c3ccc(F)c4c3OCC4)cc2)c1` [compound of Ex. 10]: it took 350 nM to reach a half-maximal effect (EC50).
On the same count and under the same terms, the result for `Cc1cc2cccc(-c3ccc(OCc4cccc(C(=O)N5CCC[C@H]5C(=O)O)c4)cc3)c2o1` [compound of Ex. 8] reads 820 nM.

The same assay, now with this note: concentration inducing relative activity of 50% (100% = Ex. 1 of WO/2011/058154 at 10 μM); incubation at 37° C. for 20 minutes (Examples 11 to 75).
`O=C(O)[C@@H]1CCCN1C(=O)c1cccc(COc2ccc(-c3cccc4c3CCC4)cc2)c1` [compound of Ex. 24, 1-(3-{[4-(2,3-dihydro-1H-inden-4-yl)phenoxy]methyl}benzoyl)-L-proline]: a half-maximal effect (EC50) was put at 670 nM.
`Cc1cc2c(-c3ccc(OCc4cccc(C(=O)N5CCC[C@H]5C(=O)O)c4)cc3)cc(F)c(F)c2[nH]1` [compound of Ex. 41, 1-(3-{[4-(6,7-difluoro-2-methyl-1H-indol-4-yl)phenoxy]methyl}benzoyl)-L-proline]: the EC50 (commonly the concentration that produces a half-maximal response) worked out at 100 nM.
On the same count and under the same terms, the result for `N#CCOc1cc(F)c(F)cc1-c1ccc(OCc2cccc(C(=O)N3CCC[C@H]3C(=O)O)c2)cc1` [compound of Ex. 35, 1-[3-({[2′-(cyanomethoxy)-4′,5′-difluorobiphenyl-4-yl]oxy}methyl)benzoyl]-L-proline] reads 15 nM; that for `N#Cc1cc2c(F)c(F)cc(-c3ccc(OCc4cccc(C(=O)N5CCC[C@H]5C(=O)O)c4)cc3)c2s1` [compound of Ex. 67, 1-(3-{[4-(2-cyano-4,5-difluoro-1-benzothien-7-yl)phenoxy]methyl}benzoyl)-L-proline], 590 nM; that for `N#CCOc1cc(-c2ccc(OCc3cccc(C(=O)N4CCC[C@H]4C(=O)O)c3)cc2)cc(F)c1F` [compound of Ex. 48, 1-[3-({[3′-(cyanomethoxy)-4′,5′-difluorobiphenyl-4-yl]oxy}methyl)benzoyl]-L-proline], 120 nM.
Compound `O=C(O)[C@@H]1C=CCN1C(=O)c1cccc(COc2ccc(-c3cc(F)c(F)c4ccoc34)cc2)c1` [compound of Ex. 64, (2S)-1-(3-{[4-(4,5-difluoro-1-benzofuran-7-yl)phenoxy]methyl}benzoyl)-2,5-dihydro-1H-pyrrole-2-carboxylic acid] came in with an EC50 of 140 nM.
Still for that read-out and setting: the result for `O=C(O)[C@@H]1CCCN1C(=O)c1cccc(COc2ccc(-c3ccc(F)c4c3C=CCO4)cc2)c1` [compound of Ex. 27, 1-(3-{[4-(8-fluoro-2H-chromen-5-yl)phenoxy]methyl}benzoyl)-L-proline] reads 210 nM; that for `Cc1cc2c(F)c(F)cc(-c3ccc(OCc4cccc(C(=O)N5CCC[C@H]5C(=O)O)c4)cc3)c2s1` [compound of Ex. 62, 1-(3-{[4-(4,5-difluoro-2-methyl-1-benzothien-7-yl)phenoxy]methyl}benzoyl)-L-proline], 270 nM.
On the same count and under the same terms, in the case of `O=C(O)[C@@H]1CCCN1C(=O)c1cccc(COc2ccc(-c3cc(F)c(F)c4ccoc34)cc2F)c1` [compound of Ex. 60, 1-(3-{[4-(4,5-difluoro-1-benzofuran-7-yl)-2-fluorophenoxy]methyl}benzoyl)-L-proline] it was 160 nM.
In turn, `O=C(O)[C@@H]1CSCN1C(=O)c1cccc(COc2ccc(-c3cc(F)c(F)c4ccoc34)cc2)c1` [compound of Ex. 68, (4R)-3-(3-{[4-(4,5-difluoro-1-benzofuran-7-yl)phenoxy]methyl}benzoyl)-1,3-thiazolidine-4-carboxylic acid] showed an EC50 of 340 nM.
`COCc1coc2c(-c3ccc(OCc4cccc(C(=O)N5CCC[C@H]5C(=O)O)c4)cc3)cc(F)c(F)c12` [compound of Ex. 45, 1-[3-({4-[4,5-difluoro-3-(methoxymethyl)-1-benzofuran-7-yl]phenoxy}methyl)benzoyl]-L-proline] yielded an EC50 of 800 nM.
Same read-out and setting: the result for `O=C(O)[C@@H]1CCN1C(=O)c1cccc(COc2ccc(-c3cc(F)c(F)c4ccoc34)cc2)c1` [compound of Ex. 59, (2S)-1-(3-{[4-(4,5-difluoro-1-benzofuran-7-yl)phenoxy]methyl}benzoyl)azetidine-2-carboxylic acid] reads 150 nM; that for `O=C(O)[C@@H]1CCCN1C(=O)c1cccc(COc2ccc(-c3cc(F)c(F)c4c3C=CCO4)cc2)c1` [compound of Ex. 31, 1-(3-{[4-(7,8-difluoro-2H-chromen-5-yl)phenoxy]methyl}benzoyl)-L-proline], 100 nM.
Still for that read-out and setting: in the case of `O=C(O)[C@@H]1CCCN1C(=O)c1cccc(COc2ccc(-c3cc(F)c(F)c4[nH]ccc34)cc2)c1` [compound of Ex. 33, 1-(3-{[4-(6,7-difluoro-1H-indol-4-yl)phenoxy]methyl}benzoyl)-L-proline] it was 34 nM.
For the compound `O=C(O)[C@@H]1CCCN1C(=O)c1cccc(COc2ccc(-c3cc4ccoc4c(F)c3F)cc2)c1` [compound of Ex. 16, 1-(3-{[4-(6,7-difluoro-1-benzofuran-5-yl)phenoxy]methyl}benzoyl)-L-proline], the EC50 was determined as 35 nM.
Turning to `Cc1cc2c(F)c(F)cc(-c3ccc(OCc4cccc(C(=O)N5CCC[C@H]5C(=O)O)c4)cc3)c2o1` [compound of Ex. 23, 1-(3-{[4-(4,5-difluoro-2-methyl-1-benzofuran-7-yl)phenoxy]methyl}benzoyl)-L-proline], the half-maximal effective concentration (EC50) amounted to 110 nM.
Same read-out and setting: in the case of `[2H]C([2H])([2H])Oc1cc(F)c(F)cc1-c1ccc(OCc2cccc(C(=O)N3CCC[C@H]3C(=O)O)c2)cc1` [compound of Ex. 37, 1-(3-{[(4′,5′-difluoro-2′-d3 methoxybiphenyl-4-yl)oxy]methyl}benzoyl)-L-proline] it was 10 nM.
The same measure, in the same setting: the result for `O=C(O)[C@@H]1CCCN1C(=O)c1cccc(COc2ccc(-c3cc(F)c4occc4c3F)cc2)c1` [compound of Ex. 17, 1-(3-{[4-(4,7-difluoro-1-benzofuran-5-yl)phenoxy]methyl}benzoyl)-L-proline] reads 270 nM; that for `Cc1coc2c(-c3ccc(OCc4cccc(C(=O)N5CCC[C@H]5C(=O)O)c4)cc3)cc(F)c(F)c12` [compound of Ex. 21, 1-(3-{[4-(4,5-difluoro-3-methyl-1-benzofuran-7-yl)phenoxy]methyl}benzoyl)-L-proline], 54 nM.
In turn, `C=CCOc1cc(F)c(F)cc1-c1ccc(OCc2cccc(C(=O)N3CCC[C@H]3C(=O)O)c2)cc1` [compound of Ex. 36, 1-[3-({[2′-(allyloxy)-4′,5′-difluorobiphenyl-4-yl]oxy}methyl)benzoyl]-L-proline] registered an EC50 of 110 nM.
`N#Cc1cc2c(F)c(F)cc(-c3ccc(OCc4cccc(C(=O)N5CCC[C@H]5C(=O)O)c4)cc3)c2o1` [compound of Ex. 54]: the EC50 stood at 260 nM.
The compound `O=C(O)[C@@H]1CCCN1C(=O)c1cccc(COc2ccc(-c3cc(F)c4occc4c3)cc2)c1` [compound of Ex. 14, 1-(3-{[4-(7-fluoro-1-benzofuran-5-yl)phenoxy]methyl}benzoyl)-L-proline] gave a concentration giving a half-maximal response (EC50) of 70 nM.
In turn, `O=C(O)[C@@H]1CCCN1C(=O)c1cccc(COc2ccc(-c3cccc4ccsc34)cc2)c1` [compound of Ex. 28, 1-(3-{[4-(1-benzothien-7-yl)phenoxy]methyl}benzoyl)-L-proline] registered a half-maximal effective concentration (EC50) of 890 nM.
